Where “and” joins values, the source holds several entries; their conditions need not be identical. Identical values can stand only once.
What was measured:
[1] = test system: washed platelets; test: Thrombin-induced platelet aggregation in washed platelets; format: cell-based, human
Experimental: (§1) Platelet aggregation studies were performed according to the method of Bednar et al. (Bednar, B., Condra, C., Gould, R. J., and Connolly, T. M., Thromb. Res., 77:453-463 (1995)). Platelet-rich plasma (PRP) concentrates prepared from healthy volunteers who were aspirin free for at least 7 days by venipuncture using ACD-A as anticoagulant was purchased from Biological Specialties, Inc. (Colmar, Pa.). PRP was centrifuged at 730 g for 15 min. The platelet pellet was washed twice in CGS buffer (13 mM sodium citrate, 30 mM glucose, 120 mM NaCl, pH 6.5) containing 1 U/ml apyrase (grade V, Sigma-Aldrich, St. Louis, Mo.), 1 mM EGTA, and re-suspended in Tyrode's buffer (140 mM NaCl, 2.7 mM KCl, 12 mM NaHCO3, 0.76 mM Na2HPO4, 5.5 mM dextrose, 5.0 mM HEPES, 0.2% BSA, pH 7.4). The platelets were diluted to 3×10^8 platelets/ml and kept >45 min at 37° C. before use. 105 μl of washed platelets, 2 mM CaCl2 and […] of fibrinogen (for PAR-1 peptide-induced platelet aggregation only) were added to a 96-well microliter plate. Platelet aggregation was initiated by the addition of serial concentrations of Har peptide or thrombin (Alpha; American Diagnostica, Cat. # 470HT, 2,500 NIH Units/mg). Buffer was added to one set of control wells. The assay plate was stirred constantly and intermittently placed in a microplate reader (Softmax, Molecular Devices, Menlo Park, Calif.) to read optical density (650 nm) at 0 and 5 minutes after the addition of the compound solutions. Aggregation was calculated as the decrease in optical density between the time 0- and 5-min measurements and expressed as % of aggregation.
(§2) For the inhibition assay, platelet aggregation measurements were conducted as described, with the additional step of test compound addition. Compounds were prepared in 100% DMSO and stored. On the day of the experiment, the compounds were diluted in the Tyrode's buffer containing 3% of DMSO as a 10× working solution. 15 μl of test compound solutions were added to 105 μl of platelets 5 min prior to CaCl2 and fibrinogen additions. Platelet aggregation was initiated by the addition of agonist shown to achieve 60-70% aggregation. Antagonist potency was estimated as a % inhibition of the control Har peptide or thrombin response to obtain an IC50.
(§3) Representative compounds of the present invention were tested according to the procedure described in Biological Example 2 above, with results in Table 9 below. In Table 9 where multiple values are listed for a particular compound, said numbers represent individual measurements (tests) for said compound.

[2] = test system: platelets in platelet-rich plasma; test: Thrombin-induced platelet aggregation in platelet-rich plasma; format: cell-based, human; settings: multiple values = individual measurements
Experimental: (§4) The procedure for this assay is similar to that described in Biological Example 2, above. Briefly, platelet aggregation studies were performed according to the method of Bednar et al. (Bednar, B., Condra, C., Gould, R. J., and Connolly, T. M., Thromb. Res., 77:453-463 (1995)). Platelet-rich plasma (PRP) concentrates prepared from healthy volunteers who were aspirin free for at least 7 days by venipuncture using EDTA as anticoagulant was purchased from Biological Specialties, Inc. (Colmar, Pa.). PPP (platelet-poor-plasma) was obtained by centrifugation of PRP at Max (3,000 rpms) for 15 min at room temperature. PRP was diluted to yield platelet count of 300×10^3 platelets/μL with PPP. For thrombin induced platelet aggregation: 118 μL of 500 mM GPRP-NH2 was added to 12 mL of 300×10^3 platelets before using (to clean the fibrinogen in the plasma.) GPRP was added just before the experiment. 15 μL of test compound solutions were added to 120 μL of platelets 5 min prior the agonist additions. Platelet aggregation was initiated by the addition of agonist shown to achieve 60-70% aggregation. Antagonist potency was estimated as a % inhibition of the control Har peptide or thrombin response to obtain an IC50.
(§5) Where multiple values are listed for a particular compound, said numbers represent individual measurements (tests) for said compound.

[3] = target: T1, thrombin receptor (PAR-1) (Homo sapiens, UniProt P25116); test: FLIPR-based calcium-flux assay with human smooth muscle cells (Har peptide agonist); format: cell-based; settings: HSMC; 30 nM Har (PAR1) peptide agonist; 80-min drug incubation; multiple values = individual measurements
T1 construct: Human aortic smooth muscle cells (HSMC) were purchased from Cascade Biologics; host or cells: human aortic smooth muscle cells (HSMC)
T1 sequence (P25116 22-425): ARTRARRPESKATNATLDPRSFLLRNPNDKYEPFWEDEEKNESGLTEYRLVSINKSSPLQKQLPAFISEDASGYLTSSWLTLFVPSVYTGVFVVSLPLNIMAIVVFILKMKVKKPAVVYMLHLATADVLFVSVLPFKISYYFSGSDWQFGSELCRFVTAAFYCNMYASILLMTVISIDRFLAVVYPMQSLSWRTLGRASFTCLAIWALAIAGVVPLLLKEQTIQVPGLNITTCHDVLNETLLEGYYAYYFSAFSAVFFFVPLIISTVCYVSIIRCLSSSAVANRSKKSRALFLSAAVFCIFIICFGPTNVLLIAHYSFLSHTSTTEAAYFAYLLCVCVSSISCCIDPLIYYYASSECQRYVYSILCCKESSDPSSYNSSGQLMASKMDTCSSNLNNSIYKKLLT
Experimental: Human aortic smooth muscle cells (HSMC) were purchased from Cascade Biologics (Portland, Oreg.) and cultured in M-231 containing smooth muscle cell growth supplement and 1× Antibiotic-Antimycotic.
To determine agonist concentration for compound testing: On the day prior to the assay, 100 μL of cells (2×10^5/mL) were seeded in clear, flat-bottom black-wall, tissue culture treated polystyrene 96-well plates and incubated at 37° C., 5% CO2. On the day of the assay, 50 μL of complete dye loading solution (FLIPR Calcium 3 Kit, Molecular Devices) was added to each well containing 100 μL of culture media. The cells were incubated for 30-45 min at 37° C., in 5% CO2 before initiating the assay on the FLIPR. The agonist effect of PAR1 peptide (S-(p-F-Phe)-Har-L-Har-KY-NH2; Har=homoarginine; referred to herein as “Har” peptide) was tested and the EC50 was determined. The EC60-70 dose was used (30 nM) for compound testing.
Compound testing: On the day prior to the assay, 90 μL of cells (2.2×10^5/mL) were seeded in clear, flat-bottom black-wall, tissue culture treated polystyrene 96-well plates and incubated at 37° C., 5% CO2. On the day of the assay, the test compounds were prepared at 10× in 3% DMSO Hanks buffer and 10 μL was added to each well (final DMSO concentration of 0.3%). The cells were incubated 20 min at 37° C., 5% CO2. Culture medium containing testing compounds was dumped and the cells were washed four times with DPBS containing 0.1% of BSA and re-fed with 80 μL of growth medium. 70 μL of BD (fluorescent) dye was loaded to the cells and incubated 45 min at 37° C. incubator. The plates were equilibrated to room temperature for 15 min. 4× PAR1 peptide (30 nM final concentration) agonist plate and the cell plate were placed in FLIPR's assay chamber. 50 μL agonist was added to the cells and data was recorded for 5 min. Raw fluorescence data was exported for each well and tabulated versus time within an ASCII file. Data was then imported into Excel® and the peak response over basal level was determined. The percent inhibition for each test compound was calculated by the changes of fluorescent density as a % inhibition of the control Har peptide response to obtain an IC50.
Representative compounds of the present invention were tested according to the procedure described in Biological Example 1 above, with results in Table 8 below. In Table 8 below, where multiple values are listed for a particular compound, said numbers represent individual measurements (tests) for said compound.

[4] = test system: platelets in platelet-rich plasma; test: Har peptide-induced platelet aggregation in platelet-rich plasma; format: cell-based, human; settings: for IC50: multiple values = individual measurements; for inhibition at 10 µM: 10 μM compound
Experimental: as §4, §5

[5] = test system: washed platelets; test: Har peptide-induced platelet aggregation in washed platelets; format: cell-based; settings: Homo sapiens
Experimental: as §1, §2, §3

SMILES | Washed platelet aggregation IC50 (μM) Thrombin [1] | IC50 ([2]; Homo sapiens, Platelet) [nM] | IC50 [2] [nM] | IC50 [3] | IC50 ([4]; Homo sapiens, Platelet) [nM] | IC50 [5] [µM] | IC50 ([1]; Homo sapiens, Platelet) [µM] | IC50 [4] [nM] | inhibition at 10 µM ([4]; Homo sapiens) [%]
Cc1sc(C)c2c1COc1cc3c(cc1OC2)C(=N)N(CC(=O)c1cc(C(C)(C)C)c(O)c(C(C)(C)C)c1)C3 [Compound 74] | variable | > 10000 | > 10000 | 0.15 µM and 0.16 µM | > 10000 | 0.779 |  |  | 
COc1c(N2CCOCC2)cc(C(=O)CN2Cc3cc4c(cc3C2=N)OCc2ncccc2CO4)cc1C(C)(C)C [Compound 52] |  |  |  | 0.025 µM |  | 0.172 | 0.282 |  | 
COc1c(N2CCOCC2)cc(C(=O)CN2Cc3cc4c(cc3C2=N)OCc2cc(C)c(C)cc2CO4)cc1C(C)(C)C [Compound 98] |  | > 10000 |  | 0.27 µM and > 1 µM | > 10000 |  |  |  | 
CC(C)(C)c1cc(C(=O)CN2Cc3cc4c(cc3C2=N)OCC(F)(F)C(F)(F)CO4)cc(C(C)(C)C)c1O [Compound 91] |  | > 10000 | > 10000 | 0.39 µM and 0.07 µM and 0.19 µM | 12900 |  |  |  | 26
CC(C)(C)c1cc(C(=O)CN2Cc3cc4c(cc3C2=N)OCc2ccc(C(=O)O)cc2CO4)cc(C(C)(C)C)c1O [Compound 81] |  | > 10000 | > 10000 | 0.054 µM and 0.082 µM and 0.014 µM | > 10000 |  |  | > 10000 | 
COc1c(N2CCOCC2)cc(C(=O)CN2Cc3cc4c(cc3C2=N)OCC(F)(F)CO4)cc1C(C)(C)C [Compound 92] |  | > 10000 | > 10000 | 0.53 µM and 0.36 µM |  |  |  |  | 24

Continued by falling IC50 ([2]; Homo sapiens, Platelet), values first:

Washed platelet aggregation IC50 (μM) Thrombin [1] | IC50 ([2]; Homo sapiens, Platelet) [nM] | IC50 [2] [nM] | IC50 [3] | IC50 ([4]; Homo sapiens, Platelet) [nM] | IC50 [5] [µM] | IC50 ([1]; Homo sapiens, Platelet) [µM] | IC50 [4] [nM] | SMILES | inhibition at 10 µM ([4]; Homo sapiens) [%]
 | 3550 | 2660 | 0.091 µM and 0.024 µM | 1630 |  |  | 1210 | COc1c(N2CCOCC2)cc(C(=O)CN2Cc3cc4c(cc3C2=N)OCc2c(F)ccc(F)c2CO4)cc1C(C)(C)C [Compound 88] | 
 | 3230 | 3250 | 0.031 µM and 0.015 µM | 1570 |  |  | 2300 | CC(C)(C)c1cc(C(=O)CN2Cc3cc4c(c(F)c3C2=N)OCc2ccccc2CO4)cc(C(C)(C)C)c1O [Compound 96] | 
 | 2540 | 2750 | 0.04 µM and 0.088 µM | 2270 |  |  | 2250 | CC(C)(C)c1cc(C(=O)CN2Cc3cc4c(cc3C2=N)OCc2ccccc2CO4)cc(C(C)(C)C)c1O [Compound 47] | 
 | 2190 |  | 0.05 µM and 0.1 µM | 1300 |  |  |  | COc1c(N2CCOCC2)cc(C(=O)CN2Cc3cc4c(cc3C2=N)OC/C=C\CO4)cc1C(C)(C)C [Compound 97] | 
